Experimental data taken from ChEMBL document CHEMBL4732135, “Structural and mechanistic insights into the inhibition of amyloid-β aggregation by Aβ fragment derived synthetic peptides” (Eur J Med Chem, 2021).
Active and inactive are the calls of the source. The rule behind the calls is not given here. Square brackets hold non-standard residues; d marks the D form. Peptide text beside a SMILES is read from it. ξ: configuration not given here. Phe(4-NO2) = N[C@@H](Cc1ccc([N+](=O)[O-])cc1)C(=O)O; Phe(4-CF3) = N[C@@H](Cc1ccc(C(F)(F)F)cc1)C(=O)O; Phe(4-tBu) = CC(C)(C)c1ccc(C[C@H](N)C(=O)O)cc1; Bip = N[C@@H](Cc1ccc(-c2ccccc2)cc1)C(=O)O; Phe(4-Cl) = N[C@@H](Cc1ccc(Cl)cc1)C(=O)O; Oic(3aξ,7aξ) = O=C(O)[C@@H]1CC2CCCCC2N1; Phe(4-NH2) = Nc1ccc(C[C@H](N)C(=O)O)cc1; Phe(4-Me) = Cc1ccc(C[C@H](N)C(=O)O)cc1; NMeF = CN[C@@H](Cc1ccccc1)C(=O)O; NMeI = CC[C@H](C)[C@H](NC)C(=O)O; 4Pal = N[C@@H](Cc1ccncc1)C(=O)O; Tle = CC(C)(C)[C@H](N)C(=O)O; β3hP = O=C(O)C[C@@H]1CCCN1; Ac5c = NC1(C(=O)O)CCCC1; Abu = CC[C@H](N)C(=O)O

Tests used:
[1] = system: Cortical neurone; experiment: Neuroprotective activity against amyloid beta 42-induced toxicity in rat primary cortical neurons at 10 uM; type: functional, cell-based
[2] = biological target: Amyloid-beta precursor protein (Homo sapiens) (UniProt P05067); experiment: Inhibition of amyloid beta (1 to 42) (unknown origin) assessed as reduction in peptide aggregation at 2 uM measured after 24 hrs by thioflavin-T fluorescence assay relative to control
Chain of Amyloid-beta precursor protein (Homo sapiens) (P05067 whole entry): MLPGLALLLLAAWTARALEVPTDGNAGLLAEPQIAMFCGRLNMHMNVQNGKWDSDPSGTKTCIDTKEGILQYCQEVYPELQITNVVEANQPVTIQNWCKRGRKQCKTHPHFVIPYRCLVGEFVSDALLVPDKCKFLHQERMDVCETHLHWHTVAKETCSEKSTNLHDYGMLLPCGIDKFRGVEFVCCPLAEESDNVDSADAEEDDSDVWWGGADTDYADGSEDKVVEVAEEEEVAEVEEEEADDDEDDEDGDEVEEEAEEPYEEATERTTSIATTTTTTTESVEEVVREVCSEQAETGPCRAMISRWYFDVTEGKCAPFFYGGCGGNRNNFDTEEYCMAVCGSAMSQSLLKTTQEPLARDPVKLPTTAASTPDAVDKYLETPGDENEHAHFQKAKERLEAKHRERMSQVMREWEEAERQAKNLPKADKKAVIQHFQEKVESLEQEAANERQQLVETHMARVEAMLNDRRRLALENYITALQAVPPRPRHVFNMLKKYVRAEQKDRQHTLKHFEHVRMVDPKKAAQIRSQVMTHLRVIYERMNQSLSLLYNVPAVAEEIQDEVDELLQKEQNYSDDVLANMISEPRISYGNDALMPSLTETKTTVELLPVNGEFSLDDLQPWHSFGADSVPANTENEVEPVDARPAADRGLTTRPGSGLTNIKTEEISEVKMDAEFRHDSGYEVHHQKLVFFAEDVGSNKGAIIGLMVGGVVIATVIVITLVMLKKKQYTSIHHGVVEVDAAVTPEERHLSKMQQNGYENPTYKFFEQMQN

[3] = system: PC-12; experiment: Neuroprotective activity against amyloid beta 42-induced toxicity in rat PC-12 cells assessed as cell viability at 10 uM measured after 6 hrs by MTT assay (reference value: 74.05%); type: functional; conditions: read-out: Activity
[4] = biological target: Amyloid-beta precursor protein (Homo sapiens) (UniProt P05067); experiment: Inhibition of amyloid beta (1 to 42) (unknown origin) assessed as reduction in peptide aggregation at 4 uM measured after 24 hrs by thioflavin-T fluorescence assay relative to control
[5] = system: PC-12; experiment: Neuroprotective activity against amyloid beta 42-induced toxicity in rat PC-12 cells assessed as cell viability at 4 uM measured after 6 hrs by MTT assay (reference value: 74.05%); type: functional; conditions: read-out: Activity
[6] = system: Cortical neurone; experiment: Cytotoxicity against rat primary cortical neuron assessed as reduction in cell viability at 20 uM measured after 6 hrs by MTT assay; type: cell-based
[7] = system: PC-12; experiment: Cytotoxicity against rat PC-12 cells assessed as reduction in cell viability at 20 uM measured after 6 hrs by MTT assay; type: cell-based; conditions: pc-12, 6 h
[8] = biological target: Amyloid-beta precursor protein (Homo sapiens) (UniProt P05067); experiment: Inhibition of amyloid beta (1 to 42) (unknown origin) assessed as reduction in peptide aggregation at 10 uM measured after 24 hrs by thioflavin-T fluorescence assay relative to control
[9] = Effective permeability of compound in pH 8 PBS buffer by PAMPA-BBB assay; type: ADME
[10] = system: PC-12; experiment: Neuroprotective activity against amyloid beta 42-induced toxicity in rat PC-12 cells assessed as cell viability at 2 uM measured after 6 hrs by MTT assay (reference value: 74.05%); type: functional; conditions: read-out: Activity
[11] = biological target: Amyloid-beta precursor protein (Homo sapiens) (UniProt P05067); experiment: Inhibition of amyloid beta (1 to 42) (unknown origin) assessed as reduction in peptide aggregation at 0.5 uM measured after 24 hrs by thioflavin-T fluorescence assay relative to control
[12] = system: PC-12; experiment: Neuroprotective activity against amyloid beta 42-induced toxicity in rat PC-12 cells assessed as cell viability at 1 uM measured after 6 hrs by MTT assay (reference value: 73.8%); type: functional; conditions: read-out: Activity
[13] = biological target: Amyloid-beta precursor protein (Homo sapiens) (UniProt P05067); experiment: Inhibition of amyloid beta (1 to 42) (unknown origin) aggregation assessed as relative fluorescence unit at 4 uM measured after 24 hrs by thioflavin-T fluorescence assay (reference value: 100%)
[14] = system: PC-12; experiment: Neuroprotective activity against amyloid beta 42-induced toxicity in rat PC-12 cells assessed as cell viability at 0.1 uM measured after 6 hrs by MTT assay (reference value: 73.8%); type: functional; conditions: read-out: Activity
[15] = biological target: Amyloid-beta precursor protein (Homo sapiens) (UniProt P05067); experiment: Inhibition of amyloid beta (1 to 42) (unknown origin) assessed as reduction in peptide aggregation at 0.1 uM measured after 24 hrs by thioflavin-T fluorescence assay relative to control
[16] = biological target: Amyloid-beta precursor protein (Homo sapiens) (UniProt P05067); experiment: Inhibition of amyloid beta (1 to 42) (unknown origin) assessed as reduction in peptide aggregation at 1 uM measured after 24 hrs by thioflavin-T fluorescence assay relative to control
[17] = biological target: Amyloid-beta precursor protein (Homo sapiens) (UniProt P05067); experiment: Inhibition of amyloid beta (1 to 42) (unknown origin) aggregation assessed as relative fluorescence unit at 2 uM measured after 24 hrs by thioflavin-T fluorescence assay (reference value: 100%)
[18] = system: PC-12; experiment: Neuroprotective activity against amyloid beta 42-induced toxicity in rat PC-12 cells assessed as cell viability at 0.5 uM measured after 6 hrs by MTT assay (reference value: 73.8%); type: functional; conditions: read-out: Activity
[19] = biological target: Amyloid-beta precursor protein (Homo sapiens) (UniProt P05067); experiment: Inhibition of amyloid beta (1 to 42) (unknown origin) aggregation assessed as relative fluorescence unit at 10 uM measured after 24 hrs by thioflavin-T fluorescence assay (reference value: 100%)

Compound | inhibition [2] [%] | inhibition [4] [%] | inhibition [8] [%] | viability at 10 µM [3] [%] | viability at 4 µM [5] [%] | viability at 2 µM [10] [%] | other results
COc1cc(/C=C/C(=O)CC(=O)/C=C/c2ccc(O)c(OC)c2)ccc1O |  |  |  |  |  |  | Activity [1]: Active
Oc1ccc(/C=C/c2cc(O)cc(O)c2)cc1 |  |  |  |  |  |  | Activity [1]: Active
CC[C@H](C)[C@H](NC(=O)[C@H](Cc1ccccc1)NC(=O)[C@@H](N)Cc1ccccc1)C(=O)N[C@@H](C)C(=O)O (H-FFIA-OH) | 92.2 | 97.2 | 100 | 83.8 | 100 | 98 | Activity [6]: Non-Toxic; Activity [7]: Non-Toxic; Peff [9]: Permeable
CC(C)[C@H](N)C(=O)N[C@H](C(=O)N1C2CCCCC2C[C@H]1C(=O)N[C@@H](C)C(=O)O)C(C)C (stereo partly specified) (H-VV[Oic(3aξ,7aξ)]A-OH) | 37.2 | 19.3 | 46.4 | 86.1 | 78.4 | 60 | 
CC[C@H](C)[C@H](NC(=O)C1(NC(=O)[C@@H](N)C(C)C)CCCC1)C(=O)N[C@@H](C)C(=O)O (H-V[Ac5c]IA-OH) | 100 | 100 | 100 | 100 | 97.1 | 89 | 
CC[C@H](C)[C@H](NC(=O)C[C@@H]1CCCN1C(=O)[C@@H](N)C(C)C)C(=O)N[C@@H](C)C(=O)O (H-V[β3hP]IA-OH) | 96.1 | 99.2 | 100 | 66.4 | 80.4 | 91.1 | 
CC[C@H](C)[C@H](NC(=O)[C@@H](NC(=O)[C@@H](N)Cc1ccncc1)C(C)C)C(=O)N[C@@H](C)C(=O)O (H-[4Pal]VIA-OH) | 42.7 | 44.2 | 46 | 96.8 | 78.2 | 82 | 
CC[C@H](C)[C@H](NC(=O)[C@@H](NC(=O)[C@@H](N)Cc1ccc(-c2ccccc2)cc1)C(C)C)C(=O)N[C@@H](C)C(=O)O (H-[Bip]VIA-OH) | 26.4 | 34.7 | 12.9 | 83.2 | 80.6 | 86.5 | 
CC[C@H](C)[C@H](NC(=O)[C@@H](NC(=O)[C@H](Cc1ccccc1)NC)C(C)C)C(=O)N[C@@H](C)C(=O)O (H-[NMeF]VIA-OH) | 84.8 | 94.3 | 100 | 100 | 81 | 86.1 | Peff [9]: Permeable
CC[C@H](C)[C@H](NC(=O)[C@@H]1CC2CCCCC2N1C(=O)[C@@H]1CC2CCCCC2N1)C(=O)N[C@@H](C)C(=O)O (stereo partly specified) (H-[Oic(3aξ,7aξ)][Oic(3aξ,7aξ)]IA-OH) | 100 | 99.1 | 91.5 | 88.5 | 92.9 | 93.2 | 
CC[C@H](C)[C@H](NC(=O)[C@@H](NC(=O)[C@@H](N)Cc1ccc(C(F)(F)F)cc1)C(C)C)C(=O)N[C@@H](C)C(=O)O (H-[Phe(4-CF3)]VIA-OH) | 41.8 | 20.4 | 4.5 | 86.2 | 88.7 | 92.1 | 
CC[C@H](C)[C@H](NC(=O)[C@@H](NC(=O)[C@@H](N)Cc1ccc(Cl)cc1)C(C)C)C(=O)N[C@@H](C)C(=O)O (H-[Phe(4-Cl)]VIA-OH) | 46.4 | 57.4 | 75.8 | 72.3 | 73.9 | 80.1 | 
CC[C@H](C)[C@H](NC(=O)[C@@H](NC(=O)[C@@H](N)Cc1ccc(C)cc1)C(C)C)C(=O)N[C@@H](C)C(=O)O (H-[Phe(4-Me)]VIA-OH) | 0 | 3.2 | 26.8 | 72.6 | 68.4 | 71.7 | 
CC[C@H](C)[C@H](NC(=O)[C@@H](NC(=O)[C@@H](N)Cc1ccc(N)cc1)C(C)C)C(=O)N[C@@H](C)C(=O)O (H-[Phe(4-NH2)]VIA-OH) | 59.2 | 68.4 | 77.4 | 82.1 | 70.3 | 77.8 | 
CC[C@H](C)[C@H](NC(=O)[C@@H](NC(=O)[C@@H](N)Cc1ccc([N+](=O)[O-])cc1)C(C)C)C(=O)N[C@@H](C)C(=O)O (H-[Phe(4-NO2)]VIA-OH) | 94.8 | 78.4 | 50.4 | 73.7 | 100 | 94.1 | 
CC[C@H](C)[C@H](NC(=O)C[C@@H]1CCCN1C(=O)C[C@@H]1CCCN1)C(=O)N[C@@H](C)C(=O)O (H-[β3hP][β3hP]IA-OH) | 78.9 | 89.7 | 100 | 100 | 75.5 | 97.9 | 

More lines, main results first:

inhibition [2] [%] | inhibition [4] [%] | inhibition [8] [%] | Compound | viability at 10 µM [3] [%] | viability at 4 µM [5] [%] | viability at 2 µM [10] [%] | other results
33.9 | 60.6 | 66.2 | CC[C@H](C)[C@H](NC(=O)[C@@H](NC(=O)[C@@H](N)C(C)C)C(C)C)C(=O)N[C@@H](C)C(=O)O (H-VVIA-OH) | 93.6 | 90.5 | 78.9 | Peff [9]: Permeable
82 | 100 | 100 | CC[C@H](C)[C@H](NC(=O)[C@@H](NC(=O)[C@@H](N)C(C)C)C(C)C)C(=O)N[C@@H](CC(=O)O)C(=O)O (H-VVID-OH) | 95.8 | 98.7 | 100 | Activity [6]: Non-Toxic; Activity [7]: Non-Toxic
80.6 | 83.4 | 100 | CC[C@H](C)[C@@H](C(=O)N[C@@H](C)C(=O)O)N(C)C(=O)[C@@H](NC(=O)[C@@H](N)C(C)C)C(C)C (H-VV[NMeI]A-OH) | 100 | 92.9 | 88.4 | Peff [9]: Permeable
0 | 0 | 0 | CC(C)[C@H](N)C(=O)N[C@H](C(=O)N[C@H](C(=O)N[C@@H](C)C(=O)O)C(C)(C)C)C(C)C (H-VV[Tle]A-OH) | 82.7 | 69.2 | 78.1 | 
0 | 5.3 | 24.1 | CC[C@H](NC(=O)[C@@H](N)C(C)C)C(=O)N[C@H](C(=O)N[C@@H](C)C(=O)O)[C@@H](C)CC (H-V[Abu]IA-OH) | 82.7 | 70.8 | 90.1 | 
100 | 100 | 100 | CC[C@H](C)[C@H](NC(=O)[C@@H](NC(=O)[C@@H](N)C(C)C)C(C)(C)C)C(=O)N[C@@H](C)C(=O)O (H-V[Tle]IA-OH) | 100 | 91.3 | 89.3 | 
97.7 | 90.2 | 88.7 | CC[C@H](NC(=O)[C@@H](N)CC)C(=O)N[C@H](C(=O)N[C@@H](C)C(=O)O)[C@@H](C)CC (H-[Abu][Abu]IA-OH) | 92.1 | 100 | 100 | Activity [6]: Non-Toxic; Activity [7]: Non-Toxic
78.6 | 57.4 | 42 | CC[C@H](C)[C@H](NC(=O)[C@@H](NC(=O)[C@@H](N)Cc1ccc(C(C)(C)C)cc1)C(C)C)C(=O)N[C@@H](C)C(=O)O (H-[Phe(4-tBu)]VIA-OH) | 80.2 | 87.3 | 93.6 | 
100 | 97.4 | 95.3 | CC[C@H](C)[C@H](NC(=O)[C@@H](NC(=O)[C@@H](N)C(C)(C)C)C(C)(C)C)C(=O)N[C@@H](C)C(=O)O (H-[Tle][Tle]IA-OH) | 100 | 100 | 100 | inhibition [11]: 41.3%; viability at 1 µM [12]: 97.6%; RFU [13]: 54.5%; viability at 0.1 µM [14]: 91.2%; inhibition [15]: 34.4%; Activity [6]: Non-Toxic; Activity [7]: Non-Toxic; inhibition [16]: 51.8%; RFU [17]: 51.2%; viability at 0.5 µM [18]: 94.5%; RFU [19]: 55.5%
